Measurements taken from PubChem BioAssay (NCI).
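Following 48 hours of exposure in 96-well plates, responses at five concentrations were used to interpolate endpoints linearly. Abbreviation: GI50, concentration required for 50% inhibition of growth. TGI: total growth inhibition.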

Columns and labels:
Test in all cases: NCI-60 cell line screen, 48 h
BT-549 breast = test system: BT-549 breast
UACC-257 melanoma = test system: UACC-257 melanoma
LOX IMVI melanoma = test system: LOX IMVI melanoma
CCRF-CEM leukemia = test system: CCRF-CEM leukemia
TK-10 renal = test system: TK-10 renal
SF-268 CNS = test system: SF-268 CNS
SK-MEL-5 melanoma = test system: SK-MEL-5 melanoma
NCI-H226 lung = test system: NCI-H226 lung
PC-3 prostate = test system: PC-3 prostate
OVCAR-3 ovarian = test system: OVCAR-3 ovarian
IGROV1 ovarian = test system: IGROV1 ovarian
COLO 205 colon = test system: COLO 205 colon
786-0 renal = test system: 786-0 renal
MDA-MB-231 breast = test system: MDA-MB-231 breast
A498 renal = test system: A498 renal
RXF 393 renal = test system: RXF 393 renal
NCI-H460 lung = test system: NCI-H460 lung
MOLT-4 leukemia = test system: MOLT-4 leukemia
HL-60(TB) leukemia = test system: HL-60(TB) leukemia
U251 CNS = test system: U251 CNS
NCI-H23 lung = test system: NCI-H23 lung
HOP-62 NSCLC = test system: HOP-62 NSCLC
HOP-92 NSCLC = test system: HOP-92 NSCLC
HCC-2998 colon = test system: HCC-2998 colon
NCI/ADR-RES ovarian = test system: NCI/ADR-RES ovarian
SK-MEL-2 melanoma = test system: SK-MEL-2 melanoma
HS 578T breast = test system: HS 578T breast
CAKI-1 renal = test system: CAKI-1 renal
MALME-3M melanoma = test system: MALME-3M melanoma
NCI-H522 lung = test system: NCI-H522 lung
DU-145 prostate = test system: DU-145 prostate
RPMI-8226 leukemia = test system: RPMI-8226 leukemia
MCF7 breast = test system: MCF7 breast
SNB-19 CNS = test system: SNB-19 CNS
K-562 leukemia = test system: K-562 leukemia
OVCAR-5 ovarian = test system: OVCAR-5 ovarian
OVCAR-4 ovarian = test system: OVCAR-4 ovarian
UO-31 renal = test system: UO-31 renal
SN12C renal = test system: SN12C renal
KM12 colon = test system: KM12 colon
HCT-116 colon = test system: HCT-116 colon
SK-OV-3 ovarian = test system: SK-OV-3 ovarian
SR leukemia = test system: SR leukemia
HT29 colon = test system: HT29 colon
SF-295 CNS = test system: SF-295 CNS
SNB-75 CNS = test system: SNB-75 CNS
SK-MEL-28 melanoma = test system: SK-MEL-28 melanoma
OVCAR-8 ovarian = test system: OVCAR-8 ovarian
UACC-62 melanoma = test system: UACC-62 melanoma
SF-539 CNS = test system: SF-539 CNS
ACHN renal = test system: ACHN renal
T-47D breast = test system: T-47D breast

Question: For `Cc1[nH]nc2c1N=C(c1ccccc1F)c1cc(C#N)ccc1N2`, which GI50 (BT-549 breast) is on record?
Answer: Its GI50 is 2.65 µM.

Question: What about the TGI (BT-549 breast) of the same compound?
Answer: The TGI was 12.1 µM.

Question: And the GI50 (UACC-257 melanoma)?
Answer: The GI50 was 9.71 µM.

Question: What about the TGI (UACC-257 melanoma) of the same compound?
Answer: The TGI was greater than 25 µM.

Question: And the GI50 (LOX IMVI melanoma)?
Answer: Its GI50 is 0.285 µM.

Question: What about the TGI (LOX IMVI melanoma) of the same compound?
Answer: Its TGI is 16.3 µM.

Question: And the GI50 (CCRF-CEM leukemia)?
Answer: The GI50 was 0.113 µM.

Question: What about the TGI (CCRF-CEM leukemia) of the same compound?
Answer: The TGI was greater than 13.6 µM.

Question: And the GI50 (TK-10 renal)?
Answer: Its GI50 is 1.91 µM.

Question: And the TGI (TK-10 renal)?
Answer: Its TGI is 8.73 µM.

Question: What about the GI50 (SF-268 CNS) of the same compound?
Answer: The GI50 was 0.316 µM.

Question: And the TGI (SF-268 CNS)?
Answer: Its TGI is 5.8 µM.

Question: And the GI50 (SK-MEL-5 melanoma)?
Answer: Its GI50 is 0.0971 µM.

Question: What about the TGI (SK-MEL-5 melanoma) of the same compound?
Answer: The TGI was 9.39 µM.

Question: And the GI50 (NCI-H226 lung)?
Answer: The GI50 was 0.322 µM.

Question: And the TGI (NCI-H226 lung)?
Answer: Its TGI is 4.11 µM.

Question: And the GI50 (PC-3 prostate)?
Answer: The GI50 was 4.93 µM.

Question: And the TGI (PC-3 prostate)?
Answer: Its TGI is greater than 25 µM.

Question: What about the GI50 (OVCAR-3 ovarian) of the same compound?
Answer: Its GI50 is 0.0887 µM.

Question: And the TGI (OVCAR-3 ovarian)?
Answer: Its TGI is 8.31 µM.

Question: What about the GI50 (IGROV1 ovarian) of the same compound?
Answer: Its GI50 is 5.4 µM.

Question: What about the TGI (IGROV1 ovarian) of the same compound?
Answer: Its TGI is 16.2 µM.

Question: And the GI50 (COLO 205 colon)?
Answer: Its GI50 is 0.134 µM.

Question: And the TGI (COLO 205 colon)?
Answer: Its TGI is 5.34 µM.

Question: And the GI50 (786-0 renal)?
Answer: The GI50 was 0.801 µM.

Question: And the TGI (786-0 renal)?
Answer: The TGI was 7.27 µM.

Question: What about the GI50 (MDA-MB-231 breast) of the same compound?
Answer: Its GI50 is 2.59 µM.

Question: And the TGI (MDA-MB-231 breast)?
Answer: The TGI was 11.7 µM.

Question: And the GI50 (A498 renal)?
Answer: The GI50 was 0.146 µM.

Question: What about the TGI (A498 renal) of the same compound?
Answer: The TGI was 1.08 µM.

Question: And the GI50 (RXF 393 renal)?
Answer: The GI50 was 0.105 µM.

Question: What about the TGI (RXF 393 renal) of the same compound?
Answer: Its TGI is 1.99 µM.

Question: What about the GI50 (NCI-H460 lung) of the same compound?
Answer: The GI50 was 0.106 µM.

Question: What about the TGI (NCI-H460 lung) of the same compound?
Answer: Its TGI is 15.6 µM.

Question: What about the GI50 (MOLT-4 leukemia) of the same compound?
Answer: Its GI50 is 6.25 µM.

Question: What about the TGI (MOLT-4 leukemia) of the same compound?
Answer: Its TGI is greater than 25 µM.

Question: And the GI50 (HL-60(TB) leukemia)?
Answer: The GI50 was 0.0969 µM.

Question: And the TGI (HL-60(TB) leukemia)?
Answer: The TGI was 8.71 µM.

Question: What about the GI50 (U251 CNS) of the same compound?
Answer: The GI50 was 0.215 µM.

Question: And the TGI (U251 CNS)?
Answer: Its TGI is 4.64 µM.

Question: What about the GI50 (NCI-H23 lung) of the same compound?
Answer: Its GI50 is 3.74 µM.

Question: What about the TGI (NCI-H23 lung) of the same compound?
Answer: Its TGI is 14.2 µM.

Question: And the GI50 (HOP-62 NSCLC)?
Answer: The GI50 was 0.899 µM.

Question: And the TGI (HOP-62 NSCLC)?
Answer: The TGI was 8.85 µM.

Question: And the GI50 (HOP-92 NSCLC)?
Answer: Its GI50 is 0.672 µM.

Question: What about the TGI (HOP-92 NSCLC) of the same compound?
Answer: Its TGI is 8.87 µM.

Question: What about the GI50 (HCC-2998 colon) of the same compound?
Answer: The GI50 was 3.58 µM.

Question: And the TGI (HCC-2998 colon)?
Answer: The TGI was 15.9 µM.

Question: And the GI50 (NCI/ADR-RES ovarian)?
Answer: Its GI50 is 4.72 µM.

Question: And the TGI (NCI/ADR-RES ovarian)?
Answer: Its TGI is greater than 25 µM.

Question: And the GI50 (SK-MEL-2 melanoma)?
Answer: The GI50 was 2.39 µM.

Question: And the TGI (SK-MEL-2 melanoma)?
Answer: Its TGI is 8.81 µM.

Question: And the GI50 (HS 578T breast)?
Answer: Its GI50 is 0.122 µM.

Question: And the TGI (HS 578T breast)?
Answer: Its TGI is 3.83 µM.

Question: What about the GI50 (CAKI-1 renal) of the same compound?
Answer: Its GI50 is 0.051 µM.

Question: And the TGI (CAKI-1 renal)?
Answer: The TGI was 5.66 µM.

Question: What about the GI50 (MALME-3M melanoma) of the same compound?
Answer: The GI50 was 14.7 µM.

Question: What about the TGI (MALME-3M melanoma) of the same compound?
Answer: Its TGI is greater than 25 µM.

Question: And the GI50 (NCI-H522 lung)?
Answer: The GI50 was 3.72 µM.

Question: And the TGI (NCI-H522 lung)?
Answer: Its TGI is 11.1 µM.

Question: What about the GI50 (DU-145 prostate) of the same compound?
Answer: The GI50 was 3 µM.

Question: What about the TGI (DU-145 prostate) of the same compound?
Answer: The TGI was 12.8 µM.

Question: What about the GI50 (RPMI-8226 leukemia) of the same compound?
Answer: The GI50 was 7.4 µM.

Question: What about the TGI (RPMI-8226 leukemia) of the same compound?
Answer: The TGI was 19.5 µM.

Question: And the GI50 (MCF7 breast)?
Answer: Its GI50 is 0.119 µM.

Question: What about the TGI (MCF7 breast) of the same compound?
Answer: Its TGI is greater than 16.8 µM.

Question: And the GI50 (SNB-19 CNS)?
Answer: The GI50 was 4.16 µM.

Question: What about the TGI (SNB-19 CNS) of the same compound?
Answer: Its TGI is 13.9 µM.

Question: And the GI50 (K-562 leukemia)?
Answer: The GI50 was 0.11 µM.

Question: And the TGI (K-562 leukemia)?
Answer: The TGI was greater than 25 µM.

Question: And the GI50 (OVCAR-5 ovarian)?
Answer: Its GI50 is 7.12 µM.

Question: And the TGI (OVCAR-5 ovarian)?
Answer: Its TGI is 18.8 µM.

Question: And the GI50 (OVCAR-4 ovarian)?
Answer: The GI50 was 3.02 µM.

Question: What about the TGI (OVCAR-4 ovarian) of the same compound?
Answer: The TGI was 8.01 µM.

Question: And the GI50 (UO-31 renal)?
Answer: Its GI50 is 0.435 µM.

Question: What about the TGI (UO-31 renal) of the same compound?
Answer: Its TGI is 4.01 µM.

Question: And the GI50 (SN12C renal)?
Answer: The GI50 was 3.87 µM.

Question: What about the TGI (SN12C renal) of the same compound?
Answer: The TGI was 15.1 µM.

Question: And the GI50 (KM12 colon)?
Answer: The GI50 was 0.111 µM.

Question: And the TGI (KM12 colon)?
Answer: The TGI was 6.48 µM.

Question: What about the GI50 (HCT-116 colon) of the same compound?
Answer: The GI50 was 0.143 µM.

Question: And the TGI (HCT-116 colon)?
Answer: Its TGI is 6.91 µM.

Question: And the GI50 (SK-OV-3 ovarian)?
Answer: The GI50 was 0.889 µM.

Question: What about the TGI (SK-OV-3 ovarian) of the same compound?
Answer: Its TGI is greater than 17 µM.

Question: What about the GI50 (SR leukemia) of the same compound?
Answer: Its GI50 is 0.0641 µM.

Question: And the TGI (SR leukemia)?
Answer: The TGI was greater than 18 µM.

Question: What about the GI50 (HT29 colon) of the same compound?
Answer: Its GI50 is 0.118 µM.

Question: And the TGI (HT29 colon)?
Answer: Its TGI is 7.41 µM.

Question: What about the GI50 (SF-295 CNS) of the same compound?
Answer: Its GI50 is 0.207 µM.

Question: And the TGI (SF-295 CNS)?
Answer: Its TGI is 15.9 µM.

Question: What about the GI50 (SNB-75 CNS) of the same compound?
Answer: Its GI50 is 0.036 µM.

Question: And the TGI (SNB-75 CNS)?
Answer: Its TGI is 0.717 µM.

Question: What about the GI50 (SK-MEL-28 melanoma) of the same compound?
Answer: The GI50 was 6.5 µM.

Question: And the TGI (SK-MEL-28 melanoma)?
Answer: The TGI was greater than 23.5 µM.

Question: And the GI50 (OVCAR-8 ovarian)?
Answer: Its GI50 is 3.38 µM.

Question: What about the TGI (OVCAR-8 ovarian) of the same compound?
Answer: The TGI was 12.3 µM.

Question: And the GI50 (UACC-62 melanoma)?
Answer: The GI50 was 3.04 µM.

Question: What about the TGI (UACC-62 melanoma) of the same compound?
Answer: The TGI was 7.37 µM.

Question: What about the GI50 (SF-539 CNS) of the same compound?
Answer: Its GI50 is 0.134 µM.

Question: And the TGI (SF-539 CNS)?
Answer: The TGI was 4.93 µM.

Question: What about the GI50 (ACHN renal) of the same compound?
Answer: The GI50 was 0.326 µM.

Question: And the TGI (ACHN renal)?
Answer: The TGI was 5.37 µM.

Question: And the GI50 (T-47D breast)?
Answer: Its GI50 is 1.36 µM.

Question: And the TGI (T-47D breast)?
Answer: Its TGI is greater than 15.2 µM.
